Assay results from patent US20090170768A1, “WATER-SOLUBLE CARBON NANOTUBE COMPOSITIONS FOR DRUG DELIVERY AND MEDICINAL APPLICATIONS” (William Marsh Rice University, priority 2007, published 2009).
Where two headings read alike, the source gives them in different places.

Key:
cells = experiment: Intracellular delivery of FITC (cell fluorescence); format: cell-based; conditions: provided to cells
Excerpt: In certain embodiments, the compositions provide intracellular delivery of the at least one type of payload molecule. The intracellular delivery may occur in vitro or in vivo. […] Thus, the compositions provide intracellular delivery of the at least one type of payload molecule.

Tu167 cells = experiment: MTT assay, in vitro cell killing in Tu167 cells; format: cell-based
Procedure: (§1) For the analyses, the analyses presented in FIGS. 1 and 2, the paclitaxel was dissolved in either acidic MeOH (FIG. 1) or neutral MeOH (FIG. 2) prior to association with the PEG-functionalized SWNTs. The MeOH was removed from the compositions by evaporation following sequestration of the paclitaxel by the PEG-functionalized SWNT matrix. MeOH removal was performed prior to MTT analysis. […] The control paclitaxel was dissolved in a cremaphor vehicle.

UMSCC1 cells = experiment: MTT assay, in vitro cell killing in UMSCC1 cells; format: cell-based; conditions: Homo sapiens
Procedure: as §1
For the analysis presented in FIG. 4, the paclitaxel was dissolved in EtOH prior to association with the PEG-functionalized SWNTs. The EtOH was removed from the compositions by evaporation following sequestration of the paclitaxel by the PEG-functionalized SWNT matrix. EtOH removal was performed prior to MTT analysis.

[1] = Paclitaxel solubilization in water with or without PEG-functionalized carbon nanotubes

Compound	intracellular fluorescence (cells)	IC50 (Tu167 cells; Tu167 cells, MTT, vehicle per row (cremaphor or aqueous), R^2 in parentheses, read-out: Tu167 IC50 (nm): R^2) [nM]	IC50 (Tu167 cells; dissolved in cremaphor vehicle (FIG. 3), read-out: IC50 in Tu167 cells) [nM]	IC50 (UMSCC1 cells; UMSCC1, cremaphor vehicle (FIG. 5), read-out: IC50 in UMSCC1 cells) [nM]	IC50 (UMSCC1 cells; UMSCC1 cells, MTT, vehicle per row (cremaphor or aqueous), R^2 in parentheses, read-out: UMSCCI IC50 (nm): R^2) [nM]	precipitation from solution ([1]; 1 mg paclitaxel in 70 μL ethanol added to 1 mL of a solution containing PEG-functionalized carbon nanotubes)	precipitation from solution ([1]; 1 mg paclitaxel in 70 μL ethanol added to 1 mL of water)
fluorescein isothiocyanate [FITC]	no intracellular fluorescence was observed	–	–	–	–	–	–
CC(=O)O[C@H]1C(=O)[C@@]2(C)[C@H]([C@H](OC(=O)c3ccccc3)[C@]3(O)C[C@H](OC(=O)[C@H](O)[C@@H](NC(=O)c4ccccc4)c4ccccc4)C(C)=C1C3(C)C)[C@]1(OC(C)=O)CO[C@@H]1C[C@@H]2O [PACLITAXEL, paclitaxel]	–	0.62	0.62	0.26	0.26	no paclitaxel precipitates from solution	immediately precipitates from solution
